{"source": "paper PMC5570900", "about": "“Exploiting a novel conformational switch to control innate immunity mediated by complement protein C3a” (Nature Communications, 2017)", "key": {"C3aR [1]": {"molecular_target": "T1, C3aR (Rattus norvegicus, UniProt O55197)", "T1 construct": "characterize for the first time a C3aR-induced innate immune response in vivo in rats; from tissue; host or cells: live male Wistar rats, hind paw", "T1 sequence (O55197 1-473)": "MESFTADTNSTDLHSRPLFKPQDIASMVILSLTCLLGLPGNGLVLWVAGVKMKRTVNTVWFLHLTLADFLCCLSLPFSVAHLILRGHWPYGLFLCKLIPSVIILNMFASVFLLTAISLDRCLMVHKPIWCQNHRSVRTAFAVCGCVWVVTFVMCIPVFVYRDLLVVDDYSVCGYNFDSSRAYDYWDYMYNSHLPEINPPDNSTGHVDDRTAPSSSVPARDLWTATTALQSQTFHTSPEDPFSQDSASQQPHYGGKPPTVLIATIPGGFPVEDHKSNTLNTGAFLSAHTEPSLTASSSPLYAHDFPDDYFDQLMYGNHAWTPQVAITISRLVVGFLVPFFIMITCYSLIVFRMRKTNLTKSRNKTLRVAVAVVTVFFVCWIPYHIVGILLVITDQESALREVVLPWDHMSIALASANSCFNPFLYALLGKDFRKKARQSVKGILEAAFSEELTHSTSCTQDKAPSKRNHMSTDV", "assay": "Antagonism of BR103-induced rat paw edema by oral C3aR antagonist", "type": "in vivo", "description": "Male Wistar rats (8–9 weeks) were injected with BR103 (3, 350 μg in 100 μL isotonic saline) into the plantar surface of both hind paw pads using a 30G needle. The inhibitor cromolyn (20 mg/kg in 5% DMSO) was injected subcutaneously 30 min before the agonist. The antagonist BR111 (6, 5–20 mg/kg in olive oil) was administered orally as a single dose 2 h before the agonist. Paw thickness and width were measured using digital calipers (WPI) at 0, 0.5, 2, 6 and 24 h after agonist BR103 administration. Hind paw size is expressed as % change in area from baseline after 0.5 h and then normalized against maximum swelling induced by agonist alone. Researchers were not blinded to treatments given.\nRat paw tissue was collected and fixed in 4% paraformaldehyde (pH 7.4) for 2 h in the cold room (4 °C). The rat paw tissue was then transferred into falcon tubes containing 30% sucrose solution in PBS and left overnight in the cold room. The next day, rat paw tissue was embedded with the Optimal Cutting Temperature compound (OCT, Sakura Finetek, USA) and stored in the −80 °C freezer before being used for making cryo-sections for histological analysis. Frozen sections of 5 microns were prepared using a cryostat-microtome (Leica Biosystems, Germany) and stained using standard protocols on the same day. In normal histological staining, such as with alcian blue and safranin O and hematoxylin and eosin (H&E), samples were briefly washed with distilled water before staining. In alcian blue and safranin O, samples were stained with 0.1% alcian blue (Sigma-Aldrich, USA) and 0.5% safranin O (Sigma-Aldrich, USA) before being mounted in mounting medium. In H&E, samples were stained with hematoxylin (Sigma-Aldrich, USA) and 0.1% eosin (Sigma-Aldrich, USA) before being mounted in mounting medium. In immunohistochemistry, samples were briefly rinsed with PBS to remove OCT and incubated with blocking medium (PBS, 0.1% triton X-100, 10% horse serum) for 1 h at room temperature. Samples were incubated with primary antibody medium (PBS, 4% horse serum, 1:200 histamine or 1:200 of tryptase or 1:150 ED1 or 1:200 ED2 antibodies) overnight at 4 °C. The next day, samples were washed with PBS and were incubated with the secondary antibody medium (PBS, 4% horse serum, detection antibody 1:1000) for 1 h at room temperature. The samples were briefly rinsed, dried and counterstained with DAPI (Invitrogen, Australia). Primary antibodies for histamine (Sigma-Aldrich, USA, H2403, monoclonal rabbit anti-rat IgG, 1: 200), tryptase (Abcam, Australia, ab2378, monoclonal mouse anti-rat IgG, 1:200), ED1 (Serotec, UK, MCA341R, monoclonal mouse anti-rat, 1:150), ED2 (Serotec, UK, MCA3424R, monoclonal mouse anti-rat, 1:200) were purchased from commercial sources. Secondary detection antibody was purchased from (Invitrogen, Australia). ED1 & ED2 positive cells were quantified using FIJI/ImageJ 1.42q software, U.S. National Institutes of Health, Bethesda, MD, USA[44]. All microscope images were obtained using an Olympus BX-51 upright microscope with Olympus DP-71 12Mp colour camera, utilizing DP Capture and DP Manager software packages (Olympus, Tokyo, Japan). Researchers who performed histological analysis and scoring were blinded to the sample identity.\nRat paw tissues were collected and immediately frozen with liquid nitrogen. The frozen rat paw tissue samples were weighed and crushed into smaller pieces with a mortar and pestle in liquid nitrogen. […]"}, "C3aR [2]": {"molecular_target": "T2, C3aR (Homo sapiens, UniProt Q16581)", "T2 sequence (Q16581 1-482)": "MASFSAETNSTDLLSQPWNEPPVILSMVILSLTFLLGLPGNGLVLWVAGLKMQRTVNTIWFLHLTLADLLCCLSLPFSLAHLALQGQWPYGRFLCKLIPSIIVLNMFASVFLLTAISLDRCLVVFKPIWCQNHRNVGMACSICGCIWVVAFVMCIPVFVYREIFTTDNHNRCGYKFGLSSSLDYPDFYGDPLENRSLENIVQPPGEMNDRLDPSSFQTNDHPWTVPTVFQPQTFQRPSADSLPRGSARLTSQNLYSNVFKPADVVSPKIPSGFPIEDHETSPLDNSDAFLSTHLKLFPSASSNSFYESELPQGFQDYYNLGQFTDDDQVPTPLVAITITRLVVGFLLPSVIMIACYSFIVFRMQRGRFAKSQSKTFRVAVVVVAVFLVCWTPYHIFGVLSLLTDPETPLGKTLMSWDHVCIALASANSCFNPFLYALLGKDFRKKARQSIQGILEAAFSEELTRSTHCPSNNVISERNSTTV", "assay": "Antagonism of agonist 3-induced iCa2+ release in HMDMs (Schild analysis)", "type": "cell-based", "design": "Concentration-dependent Ca^2+ release in human monocyte-derived macrophages (HMDMs); endogenous in cells; host or cells: primary human monocyte-derived macrophages (HMDMs)", "description": "HMDMs were seeded to a 96-well clear-bottom black-wall assay plate at a density of 5 × 10^4 cells per well and allowed to adhere overnight. Prior to assay, cells were incubated with dye-loading buffer (Hank’s balance salt solution (HBSS) buffer, 4 μM Fluo-3 AM, 25 μl Pluronic acid F-127 and 1% fetal bovine serum) for 1 h at 37 °C. Cells were then washed once with assay buffer (HBSS supplemented with 2.5 mM probenecid and 20 mM HEPES, pH 7.4). Intracellular calcium release was monitored using a fluorescence imaging plate reader (excitation 495 nm, emission 520 nm). The percentage responses were plotted against logarithmic concentrations of each test compound[42]."}}}
{"smiles": "N=C(N)NCCCC(NC(=O)c1ccc(C(c2ccccc2)c2ccccc2)s1)C(=O)O", "note": "(stereo not shown) [Compound 6]", "values": [{"measurement": "Effect on BR103-induced infiltration of ED1 macrophages", "setting": "C3aR [1]; 20 mg/kg p.o., 2 h prior, 0.5 h", "value": "prevented the increased infiltration of inflammatory ED1 macrophages"}, {"measurement": "Effect on BR103-induced proinflammatory cytokine and chemokine gene expression", "setting": "C3aR [1]; 20 mg/kg p.o., 2 h prior, 30 min", "value": "suppression of BR103-induced gene expression of proinflammatory cytokines and chemokines"}, {"measurement": "Effect on BR103-induced mast cell activation and degranulation and histamine secretion", "setting": "C3aR [1]; 20 mg/kg p.o., 2 h prior, 0.5 h after agonist", "value": "attenuated"}, {"measurement": "Effect on BR103-induced neutrophil activation (MPO activity)", "setting": "C3aR [1]; 20 mg/kg p.o., 2 h prior, 6 h after BR103", "value": "attenuated neutrophil activation at 6 h"}, {"measurement": "Effect on BR103-induced paw edema", "setting": "C3aR [1]; oral pretreatment 2 h before BR103 350 µg/paw i.pl., 5–20 mg/kg p.o., swelling at 30 min", "value": "strongly inhibited acute rat paw edema"}, {"measurement": "Mode of antagonism of agonist 3-induced Ca2+ release", "setting": "C3aR [2]", "value": "insurmountable antagonism"}, {"measurement": "Schild plot slope", "setting": "C3aR [2]; agonist 3 with 0–1000 nM antagonist 6, pre-treated 30 min, r2 = 0.99", "value": "0.77 ± 0.05"}]}
